In ChEMBL document CHEMBL4219213, “The design, synthesis and structure-activity relationships associated with C28 amine-based betulinic acid derivatives as inhibitors of HIV-1 maturation” (Bioorg Med Chem Lett, 2018):

Key:
cells = details: Human immunodeficiency virus 1, subtype B NL4-3, MT2
in vitro [1] = details: rat, liver microsomes
Description: Half life in rat liver microsomes at 0.5 uM in presence of NADPH by LC-MS/MS method

in vitro [2] = details: human, liver microsomes
Description: Half life in human liver microsomes at 0.5 uM in presence of NADPH by LC-MS/MS method

in vitro [3] = details: mouse, liver microsomes
Description: Half life in mouse liver microsomes at 0.5 uM in presence of NADPH by LC-MS/MS method

in vivo [4] = details: Sprague-Dawley, rat, po, 5 mg/kg
in vitro [5] = details: human, MT2 cells
Description: Cytotoxicity against human MT2 cells

in vivo [6] = details: Sprague-Dawley, rat, po, 5 mg/kg; remark: listed apart in the source
[7] = Dissociation constant, pKa of the compound; assay type: physicochemical

Compound | IC50 (cells) [nM] | half-life at 0.5 µM (in vitro [1]) [h] | half-life at 0.5 µM (in vitro [2]) [h] | half-life at 0.5 µM (in vitro [3]) [h] | AUC(0-t) at 24 h (in vivo [4]) [µM·h] | CC50 (in vitro [5]) [nM] | AUC(0-t) at 6 h (in vivo [6]) [µM·h] | pKa [7]
C=C(C)[C@@H]1CC[C@]2(C(=O)O)CC[C@]3(C)[C@H](CC[C@@H]4[C@@]5(C)CC=C(c6ccc(C(=O)O)cc6)C(C)(C)[C@@H]5CC[C@]43C)[C@@H]12 | > 6000 | > 2 | > 2 | > 2 | – | – | – | –
C=C(C)[C@@H]1CC[C@]2(CNCCN(C)C)CC[C@]3(C)[C@H](CC[C@@H]4[C@@]5(C)CC=C(c6ccc(C(=O)O)cc6)C(C)(C)[C@@H]5CC[C@]43C)[C@@H]12 | 21 | > 2 | > 2 | > 2 | 1.28 | 1200 | – | –
C=C(C)[C@@H]1CC[C@]2(CNCCCN3CCCC3=O)CC[C@]3(C)[C@H](CC[C@@H]4[C@@]5(C)CC=C(c6ccc(C(=O)O)cc6)C(C)(C)[C@@H]5CC[C@]43C)[C@@H]12 | 9.9 | – | – | – | – | 5800 | 1.04 | –
C=C(C)[C@@H]1CC[C@]2(CN(CCCN3CCS(=O)(=O)CC3)C3CC3)CC[C@]3(C)[C@H](CC[C@@H]4[C@@]5(C)CC=C(c6ccc(C(=O)O)cc6)C(C)(C)[C@@H]5CC[C@]43C)[C@@H]12 | 43 | > 2 | > 2 | > 2 | – | 7000 | – | –
C=C(C)[C@@H]1CC[C@]2(CNCCN3CCOCC3)CC[C@]3(C)[C@H](CC[C@@H]4[C@@]5(C)CC=C(c6ccc(C(=O)O)cc6)C(C)(C)[C@@H]5CC[C@]43C)[C@@H]12 | 15 | > 2 | 1.62 | 1.5 | – | 5000 | – | 8.2
C=C(C)[C@@H]1CC[C@]2(CNCCN3CCCCC3)CC[C@]3(C)[C@H](CC[C@@H]4[C@@]5(C)CC=C(c6ccc(C(=O)O)cc6)C(C)(C)[C@@H]5CC[C@]43C)[C@@H]12 | 37 | – | – | – | – | 4000 | – | –
C=C(C)[C@@H]1CC[C@]2(CNCCc3ccc(S(N)(=O)=O)cc3)CC[C@]3(C)[C@H](CC[C@@H]4[C@@]5(C)CC=C(c6ccc(C(=O)O)cc6)C(C)(C)[C@@H]5CC[C@]43C)[C@@H]12 | 16 | – | – | – | – | 2400 | 0.288 | –
C=C(C)[C@@H]1CC[C@]2(CNCCN3CCS(=O)(=O)CC3)CC[C@]3(C)[C@H](CC[C@@H]4[C@@]5(C)CC=C(c6ccc(C(=O)O)cc6)C(C)(C)[C@@H]5CC[C@]43C)[C@@H]12 | 6 | 1.8 | > 2 | > 2 | – | 2600 | 2.05 | –
C=C(C)[C@@H]1CC[C@]2(CNCCN3CCNCC3)CC[C@]3(C)[C@H](CC[C@@H]4[C@@]5(C)CC=C(c6ccc(C(=O)O)cc6)C(C)(C)[C@@H]5CC[C@]43C)[C@@H]12 | – | 1.43 | > 2 | – | – | 2300 | – | –
C=C(C)[C@@H]1CC[C@]2(CNCCNC(C)=O)CC[C@]3(C)[C@H](CC[C@@H]4[C@@]5(C)CC=C(c6ccc(C(=O)O)cc6)C(C)(C)[C@@H]5CC[C@]43C)[C@@H]12 | 37 | – | – | – | – | 6300 | – | –
C=C(C)[C@@H]1CC[C@]2(CNCCCN3CCN(C)CC3)CC[C@]3(C)[C@H](CC[C@@H]4[C@@]5(C)CC=C(c6ccc(C(=O)O)cc6)C(C)(C)[C@@H]5CC[C@]43C)[C@@H]12 | 16 | > 2 | > 2 | > 2 | – | 700 | – | –
C=C(C)[C@@H]1CC[C@]2(CN(C)CCCN3CCS(=O)(=O)CC3)CC[C@]3(C)[C@H](CC[C@@H]4[C@@]5(C)CC=C(c6ccc(C(=O)O)cc6)C(C)(C)[C@@H]5CC[C@]43C)[C@@H]12 | 26 | > 2 | > 2 | > 2 | 9.06 | 10000 | 4.83 | –
C=C(C)[C@@H]1CC[C@]2(CNCCCNCCO)CC[C@]3(C)[C@H](CC[C@@H]4[C@@]5(C)CC=C(c6ccc(C(=O)O)cc6)C(C)(C)[C@@H]5CC[C@]43C)[C@@H]12 | 18 | > 2 | > 2 | – | – | 320 | – | –
C=C(C)[C@@H]1CC[C@]2(CN(CCN(C)C)C(=O)CCC(=O)O)CC[C@]3(C)[C@H](CC[C@@H]4[C@@]5(C)CC=C(c6ccc(C(=O)O)cc6)C(C)(C)[C@@H]5CC[C@]43C)[C@@H]12 | 650 | – | – | – | – | 30000 | 4.39 | –
C=C(C)[C@@H]1CC[C@]2(CNC(=O)CNC)CC[C@]3(C)[C@H](CC[C@@H]4[C@@]5(C)CC=C(c6ccc(C(=O)O)cc6)C(C)(C)[C@@H]5CC[C@]43C)[C@@H]12 | 27 | – | – | – | – | 16000 | 0.54 | –
C=C(C)[C@@H]1CC[C@]2(CNCCN(C(C)C)C(C)C)CC[C@]3(C)[C@H](CC[C@@H]4[C@@]5(C)CC=C(c6ccc(C(=O)O)cc6)C(C)(C)[C@@H]5CC[C@]43C)[C@@H]12 | 35 | – | – | – | – | 3700 | – | –
C=C(C)[C@@H]1CC[C@]2(CNCCCO)CC[C@]3(C)[C@H](CC[C@@H]4[C@@]5(C)CC=C(c6ccc(C(=O)O)cc6)C(C)(C)[C@@H]5CC[C@]43C)[C@@H]12 | 55 | > 2 | > 2 | – | – | 4600 | – | –
C=C(C)[C@@H]1CC[C@]2(CNCCN(CCO)CCO)CC[C@]3(C)[C@H](CC[C@@H]4[C@@]5(C)CC=C(c6ccc(C(=O)O)cc6)C(C)(C)[C@@H]5CC[C@]43C)[C@@H]12 | 8.4 | – | – | – | – | 6800 | – | –
C=C(C)[C@@H]1CC[C@]2(CNCCN(CC)CC)CC[C@]3(C)[C@H](CC[C@@H]4[C@@]5(C)CC=C(c6ccc(C(=O)O)cc6)C(C)(C)[C@@H]5CC[C@]43C)[C@@H]12 | 35 | 1.3 | > 2 | > 2 | – | 20000 | – | –
C=C(C)[C@@H]1CC[C@]2(CNCCn3ccnc3)CC[C@]3(C)[C@H](CC[C@@H]4[C@@]5(C)CC=C(c6ccc(C(=O)O)cc6)C(C)(C)[C@@H]5CC[C@]43C)[C@@H]12 | 9.3 | – | – | – | – | 12000 | 0.223 | –
C=C(C)[C@@H]1CC[C@]2(CNCCc3ccccn3)CC[C@]3(C)[C@H](CC[C@@H]4[C@@]5(C)CC=C(c6ccc(C(=O)O)cc6)C(C)(C)[C@@H]5CC[C@]43C)[C@@H]12 | – | – | – | – | – | 7400 | – | –
C=C(C)[C@@H]1CC[C@]2(CNCCCN(C)c3ccccc3)CC[C@]3(C)[C@H](CC[C@@H]4[C@@]5(C)CC=C(c6ccc(C(=O)O)cc6)C(C)(C)[C@@H]5CC[C@]43C)[C@@H]12 | 60 | > 2 | > 2 | > 2 | – | 11000 | 0.962 | –
C=C(C)[C@@H]1CC[C@]2(CNCCCN(C)C)CC[C@]3(C)[C@H](CC[C@@H]4[C@@]5(C)CC=C(c6ccc(C(=O)O)cc6)C(C)(C)[C@@H]5CC[C@]43C)[C@@H]12 | 200 | – | – | – | – | 4500 | 0.01 | –
C=C(C)[C@@H]1CC[C@]2(CNCCNCCO)CC[C@]3(C)[C@H](CC[C@@H]4[C@@]5(C)CC=C(c6ccc(C(=O)O)cc6)C(C)(C)[C@@H]5CC[C@]43C)[C@@H]12 | 20 | 1.95 | > 2 | – | – | 2000 | – | –
C=C(C)[C@@H]1CC[C@]2(CNCCCN)CC[C@]3(C)[C@H](CC[C@@H]4[C@@]5(C)CC=C(c6ccc(C(=O)O)cc6)C(C)(C)[C@@H]5CC[C@]43C)[C@@H]12 | 40 | > 2 | > 2 | > 2 | – | 120 | – | –
C=C(C)[C@@H]1CC[C@]2(CNCCCN3CCCCC3)CC[C@]3(C)[C@H](CC[C@@H]4[C@@]5(C)CC=C(c6ccc(C(=O)O)cc6)C(C)(C)[C@@H]5CC[C@]43C)[C@@H]12 | 6.4 | 1.37 | 1.32 | 1.5 | – | 240 | – | –
C=C(C)[C@@H]1CC[C@]2(CNCCN3CCN(C)CC3)CC[C@]3(C)[C@H](CC[C@@H]4[C@@]5(C)CC=C(c6ccc(C(=O)O)cc6)C(C)(C)[C@@H]5CC[C@]43C)[C@@H]12 | 14 | – | – | – | – | 970 | – | –
